The values that follow come from patent US8084489B2 (Eli Lilly and Company, priority 2005, dated 2011).

In this assay the target is cloned human glucagon receptor (Homo sapiens, UniProt P47871). Kind of assay: Glucagon Receptor (hGlucR) Binding Assay.

Molecules are shown by their SMILES.

Chain of cloned human glucagon receptor (P47871 26-477): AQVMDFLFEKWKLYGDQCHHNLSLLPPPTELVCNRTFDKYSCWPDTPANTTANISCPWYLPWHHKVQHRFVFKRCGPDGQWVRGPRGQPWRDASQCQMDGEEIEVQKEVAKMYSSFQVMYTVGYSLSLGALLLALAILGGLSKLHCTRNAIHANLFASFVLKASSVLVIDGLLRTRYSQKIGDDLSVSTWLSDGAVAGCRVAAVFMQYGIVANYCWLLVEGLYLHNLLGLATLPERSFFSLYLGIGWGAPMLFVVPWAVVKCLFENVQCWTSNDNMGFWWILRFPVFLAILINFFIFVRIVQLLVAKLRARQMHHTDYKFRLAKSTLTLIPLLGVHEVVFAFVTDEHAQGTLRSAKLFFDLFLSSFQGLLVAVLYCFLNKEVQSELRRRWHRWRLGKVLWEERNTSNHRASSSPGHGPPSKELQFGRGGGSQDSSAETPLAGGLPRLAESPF
Method: This plasmid DNA was transfected into 293 HEK cells and selected with 200 ug/ml Hygromycin.
Crude plasma membranes are prepared using cells from suspension culture. The cells are lysed on ice in hypotonic buffer containing 25 mM Tris HCL, pH 7.5, 1 mM MgCl2, DNAse1, 20 u/ml, and Roche Complete Inhibitors-without EDTA. The cell suspension is homogenized with a glass dounce homogenizer using a Teflon pestle for 25 strokes. The homogenate is centrifuged at 4 degrees C. at 1800×g for 15 mins. The supernate is collected and the pellet is resuspended in hypotonic buffer and rehomogenized. The mixture is centrifuged at 1800×g for 15 mins. The second supernate is combined with the first supernate. The combined supernates are recentrifuged at 1800×g for 15 mins to clarify. The clarified supernate is transferred to high speed tubes and centrifuged at 25000×g for 30 minutes at 4 degrees C. The membrane pellet is resuspended in homogenization buffer and stored as frozen aliquots at −80 degree C. freezer until needed.
The specific activity is 2200 Ci/mmol.
The binding buffer contains 25 mM Hepes, pH 7.4, 2.5 mM CaCl2, 1 mM MgCl2, 0.1% fatty acid free BSA, (ICN), 0.003% tween-20, and Roche Complete Inhibitors without EDTA. […] Test compounds are dissolved in DMSO and serially diluted in DMSO. […] Plates are read with a MicroBeta after 14 hours of settling time at room temp. […]

Usually Ki stands for the equilibrium dissociation constant of an inhibitor or competing ligand from its target. Regarding `CC(C)CC(Oc1ccc(-c2ccc(C(F)(F)F)cc2)cc1)c1ccc(C(=O)NCCC(=O)O)s1` (centres unmarked), the Ki is 390 nM.
Compound `CC(C)CC(Oc1ccc(-c2ccc(C(C)(C)C)cc2)nc1)c1ccc(C(=O)NCCC(=O)O)s1` (centres unmarked) came in with a Ki of 296 nM.
